Reference: patent publication US8791102B2, “Acetanilide sphingosine-1-phosphate receptor antagonists” (Exelixis, Inc., priority 2008, dated 2014)
pIC50: −log10 of the molar value.

Target: T1, human S1P1 receptors (Homo sapiens, UniProt P21453)
T1 construct: host or cells: HEK293
Assay: S1P1R antagonist assay (fluorescent membrane potential dye, cAMP readout)
Assay type: cell-based
Settings: HEK293 cells expressing human S1P1 receptors and CNG channel; 500 nM NECA; S1P1R agonist 10 nM; 90 minutes; read-out: EC50 or IC50 value

T1 sequence (P21453 whole entry): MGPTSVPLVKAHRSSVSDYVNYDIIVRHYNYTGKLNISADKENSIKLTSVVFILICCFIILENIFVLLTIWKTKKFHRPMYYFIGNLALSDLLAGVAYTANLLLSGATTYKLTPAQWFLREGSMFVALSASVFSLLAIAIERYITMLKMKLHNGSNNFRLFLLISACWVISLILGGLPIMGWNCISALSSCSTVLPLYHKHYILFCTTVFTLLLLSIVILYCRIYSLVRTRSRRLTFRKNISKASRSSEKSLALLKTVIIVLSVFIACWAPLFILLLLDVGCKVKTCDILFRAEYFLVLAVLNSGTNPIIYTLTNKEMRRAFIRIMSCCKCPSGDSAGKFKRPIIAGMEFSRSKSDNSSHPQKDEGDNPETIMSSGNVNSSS

Compound	pIC50
O=C(NC(COCc1ccccc1)C(=O)Nc1ccc(Oc2ccccc2)cc1)c1cnccn1 (stereo not shown) [Compound 351, N-(2-oxo-1-{[(phenylmethyl)oxy]methyl}-2-{[4-(phenyloxy)phenyl]amino}ethyl)pyrazine-2-carboxamide]	< 6.00
COc1ccc2[nH]c(C)c(CC(=O)NC(COCc3ccccc3)C(=O)Nc3ccc(Oc4ccccc4)cc3)c2c1 (stereo not shown) [Compound 352, N-(2-oxo-1-{[(phenylmethyl)oxy]methyl}-2-{[4-(phenyloxy)phenyl]amino}ethyl)-2-(5-methoxy-2-methyl-1H-indol-3-yl)acetamide]	< 6.00
COC(C(=O)NC(COCc1ccccc1)C(=O)Nc1ccc(Oc2ccccc2)cc1)c1ccccc1 (stereo not shown) [Compound 353, N-(2-oxo-1-{[(phenylmethyl)oxy]methyl}-2-{[4-(phenyloxy)phenyl]amino}ethyl)-2-methoxy-2-phenylacetamide]	< 6.00
O=C(NC(COCc1ccccc1)C(=O)Nc1ccc(Oc2ccccc2)cc1)c1cn[nH]c1 (stereo not shown) [Compound 355, N-(2-oxo-1-{[(phenylmethyl)oxy]methyl}-2-{[4-(phenyloxy)phenyl]amino}ethyl)-1H-pyrazole-4-carboxamide]	6.00 to 6.52
COc1ccc(C2(C(=O)NC(COCc3ccccc3)C(=O)Nc3ccc(Oc4ccccc4)cc3)CC2)cc1 (stereo not shown) [Compound 360, N-(2-oxo-1-{[(phenylmethyl)oxy]methyl}-2-{[4-(phenyloxy)phenyl]amino}ethyl)-1-(4-methoxyphenyl)cyclopropanecarboxamide]	< 6.00
O=C(Cc1c(F)ccc(F)c1F)NC(COCc1ccccc1)C(=O)Nc1ccc(Oc2ccccc2)cc1 (stereo not shown) [Compound 361, N-(2-oxo-1-{[(phenylmethyl)oxy]methyl}-2-{[4-(phenyloxy)phenyl]amino}ethyl)-2-(2,3,6-trifluorophenyl)acetamide]	< 6.00
O=C(NC(COCc1ccccc1)C(=O)Nc1ccc(Oc2ccccc2)cc1)c1ccc(C(F)(F)F)cc1C(F)(F)F (stereo not shown) [Compound 362, N-(2-oxo-1-{[(phenylmethyl)oxy]methyl}-2-{[4-(phenyloxy)phenyl]amino}ethyl)-2,4-bis(trifluoromethyl)benzamide]	6.00 to 6.52
O=C(Cc1ccc(F)cc1F)NC(COCc1ccccc1)C(=O)Nc1ccc(Oc2ccccc2)cc1 (stereo not shown) [Compound 363, N-(2-oxo-1-{[(phenylmethyl)oxy]methyl}-2-{[4-(phenyloxy)phenyl]amino}ethyl)-2-(2,4-difluorophenyl)acetamide]	< 6.00
Cn1cc(CC(=O)NC(COCc2ccccc2)C(=O)Nc2ccc(Oc3ccccc3)cc2)c2ccccc21 (stereo not shown) [Compound 364, N-(2-oxo-1-{[(phenylmethyl)oxy]methyl}-2-{[4-(phenyloxy)phenyl]amino}ethyl)-2-(1-methyl-1H-indol-3-yl)acetamide]	< 6.00
O=C(COc1ccc(F)cc1)NC(COCc1ccccc1)C(=O)Nc1ccc(Oc2ccccc2)cc1 (stereo not shown) [Compound 368, N-(2-oxo-1-{[(phenylmethyl)oxy]methyl}-2-{[4-(phenyloxy)phenyl]amino}ethyl)-2-(4-fluorophenoxy)acetamide]	< 6.00
O=C(CCc1cccnc1)NC(COCc1ccccc1)C(=O)Nc1ccc(Oc2ccccc2)cc1 (stereo not shown) [Compound 369, N-(2-oxo-1-{[(phenylmethyl)oxy]methyl}-2-{[4-(phenyloxy)phenyl]amino}ethyl)-3-(pyridin-3-yl)propanamide]	< 6.00
O=C(COc1ccc(Cl)c(Cl)c1)NC(COCc1ccccc1)C(=O)Nc1ccc(Oc2ccccc2)cc1 (stereo not shown) [Compound 370, N-(2-oxo-1-{[(phenylmethyl)oxy]methyl}-2-{[4-(phenyloxy)phenyl]amino}ethyl)-2-(3,4-dichlorophenoxy)acetamide]	6.00 to 6.52
O=C(COc1cccc2ccccc12)NC(COCc1ccccc1)C(=O)Nc1ccc(Oc2ccccc2)cc1 (stereo not shown) [Compound 371, N-(2-oxo-1-{[(phenylmethyl)oxy]methyl}-2-{[4-(phenyloxy)phenyl]amino}ethyl)-2-(naphthalen-1-yloxy)acetamide]	< 6.00
Cc1ccc(CC(=O)NC(COCc2ccccc2)C(=O)Nc2ccc(Oc3ccccc3)cc2)cc1 (stereo not shown) [Compound 372, N-(2-oxo-1-{[(phenylmethyl)oxy]methyl}-2-{[4-(phenyloxy)phenyl]amino}ethyl)-2-p-tolylacetamide]	< 6.00
Cc1ccc(C)c(CC(=O)NC(COCc2ccccc2)C(=O)Nc2ccc(Oc3ccccc3)cc2)c1 (stereo not shown) [Compound 373, N-(2-oxo-1-{[(phenylmethyl)oxy]methyl}-2-{[4-(phenyloxy)phenyl]amino}ethyl)-2-(2,5-dimethylphenyl)acetamide]	< 6.00
CCOCCC(=O)NC(COCc1ccccc1)C(=O)Nc1ccc(Oc2ccccc2)cc1 (stereo not shown) [Compound 376, N-(2-oxo-1-{[(phenylmethyl)oxy]methyl}-2-{[4-(phenyloxy)phenyl]amino}ethyl)-3-ethoxypropanamide]	< 6.00
O=C(Cc1cccc(Cl)c1)NC(COCc1ccccc1)C(=O)Nc1ccc(Oc2ccccc2)cc1 (stereo not shown) [Compound 377, N-(2-oxo-1-{[(phenylmethyl)oxy]methyl}-2-{[4-(phenyloxy)phenyl]amino}ethyl)-2-(3-chlorophenyl)acetamide]	6.00 to 6.52
CCCCc1ccc(C(=O)NC(COCc2ccccc2)C(=O)Nc2ccc(Oc3ccccc3)cc2)nc1 (stereo not shown) [Compound 378, 5-butyl-N-(2-oxo-1-{[(phenylmethyl)oxy]methyl}-2-{[4-(phenyloxy)phenyl]amino}ethyl)pyridine-2-carboxamide]	6.00 to 6.52
Cc1cc(C(=O)NC(COCc2ccccc2)C(=O)Nc2ccc(Oc3ccccc3)cc2)ccc1Cl (stereo not shown) [Compound 379, 4-chloro-3-methyl-N-(2-oxo-1-{[(phenylmethyl)oxy]methyl}-2-{[4-(phenyloxy)phenyl]amino}ethyl)benzamide]	< 6.00
N#Cc1ccc(C(=O)NC(COCc2ccccc2)C(=O)Nc2ccc(Oc3ccccc3)cc2)cc1 (stereo not shown) [Compound 380, 4-cyano-N-(2-oxo-1-{[(phenylmethyl)oxy]methyl}-2-{[4-(phenyloxy)phenyl]amino}ethyl)benzamide]	< 6.00
CO[C@H](C(=O)NC(COCc1ccccc1)C(=O)Nc1ccc(Oc2ccccc2)cc1)c1ccccc1 (stereo partly drawn) [Compound 381, N-(2-oxo-1-{[(phenylmethyl)oxy]methyl}-2-{[4-(phenyloxy)phenyl]amino}ethyl)-2S-methoxy-2-phenylacetamide]	< 6.00
COc1ccc(OC)c(CCC(=O)NC(COCc2ccccc2)C(=O)Nc2ccc(Oc3ccccc3)cc2)c1 (stereo not shown) [Compound 382, N-(2-oxo-1-{[(phenylmethyl)oxy]methyl}-2-{[4-(phenyloxy)phenyl]amino}ethyl)-3-(2,5-dimethoxyphenyl)propanamide]	< 6.00
O=C(CCc1c[nH]c2ccccc12)NC(COCc1ccccc1)C(=O)Nc1ccc(Oc2ccccc2)cc1 (stereo not shown) [Compound 383, N-(2-oxo-1-{[(phenylmethyl)oxy]methyl}-2-{[4-(phenyloxy)phenyl]amino}ethyl)-3-(1H-indol-3-yl)propanamide]	< 6.00
O=C(Cc1cccc(Br)c1)NC(COCc1ccccc1)C(=O)Nc1ccc(Oc2ccccc2)cc1 (stereo not shown) [Compound 384, N-(2-oxo-1-{[(phenylmethyl)oxy]methyl}-2-{[4-(phenyloxy)phenyl]amino}ethyl)-2-(3-bromophenyl)acetamide]	< 6.00

Continued, values first:

pIC50	Compound
6.00 to 6.52	C[C@@H](C(=O)NC(COCc1ccccc1)C(=O)Nc1ccc(Oc2ccccc2)cc1)c1ccccc1 (stereo partly drawn) [Compound 354, N-(2-oxo-1-{[(phenylmethyl)oxy]methyl}-2-{[4-(phenyloxy)phenyl]amino}ethyl)-2R-phenylpropanamide]
6.00 to 6.52	O=C(NC(COCc1ccccc1)C(=O)Nc1ccc(Oc2ccccc2)cc1)c1cnnc2ccccc12 (stereo not shown) [Compound 356, N-(2-oxo-1-{[(phenylmethyl)oxy]methyl}-2-{[4-(phenyloxy)phenyl]amino}ethyl)cinnoline-4-carboxamide]
6.00 to 6.52	O=C(NC(COCc1ccccc1)C(=O)Nc1ccc(Oc2ccccc2)cc1)c1cccc2cccnc12 (stereo not shown) [Compound 357, N-(2-oxo-1-{[(phenylmethyl)oxy]methyl}-2-{[4-(phenyloxy)phenyl]amino}ethyl)quinoline-8-carboxamide]
< 6.00	O=C(NC(COCc1ccccc1)C(=O)Nc1ccc(Oc2ccccc2)cc1)c1cccc(O)n1 (stereo not shown) [Compound 358, 6-hydroxy-N-(2-oxo-1-{[(phenylmethyl)oxy]methyl}-2-{[4-(phenyloxy)phenyl]amino}ethyl)pyridine-2-carboxamide]
< 6.00	CC(C(=O)NC(COCc1ccccc1)C(=O)Nc1ccc(Oc2ccccc2)cc1)c1ccccc1 (stereo not shown) [Compound 359, N-(2-oxo-1-{[(phenylmethyl)oxy]methyl}-2-{[4-(phenyloxy)phenyl]amino}ethyl)-2-phenylpropanamide]
< 6.00	O=C(NC(COCc1ccccc1)C(=O)Nc1ccc(Oc2ccccc2)cc1)c1ccnc2ccccc12 (stereo not shown) [Compound 365, N-(2-oxo-1-{[(phenylmethyl)oxy]methyl}-2-{[4-(phenyloxy)phenyl]amino}ethyl)quinoline-4-carboxamide]
< 6.00	O=C(NC(COCc1ccccc1)C(=O)Nc1ccc(Oc2ccccc2)cc1)c1cc2ccccc2o1 (stereo not shown) [Compound 366, N-(2-oxo-1-{[(phenylmethyl)oxy]methyl}-2-{[4-(phenyloxy)phenyl]amino}ethyl)-1-benzofuran-2-carboxamide]
< 6.00	COc1cccc2cc(C(=O)NC(COCc3ccccc3)C(=O)Nc3ccc(Oc4ccccc4)cc3)oc12 (stereo not shown) [Compound 367, 7-(methyloxy)-N-(2-oxo-1-{[(phenylmethyl)oxy]methyl}-2-{[4-(phenyloxy)phenyl]amino}ethyl)-1-benzofuran-2-carboxamide]
< 6.00	O=C(CSCc1ccccc1)NC(COCc1ccccc1)C(=O)Nc1ccc(Oc2ccccc2)cc1 (stereo not shown) [Compound 374, N-(2-oxo-1-{[(phenylmethyl)oxy]methyl}-2-{[4-(phenyloxy)phenyl]amino}ethyl)-2-(benzylthio)acetamide]
< 6.00	O=C(Cc1cccc2ccccc12)NC(COCc1ccccc1)C(=O)Nc1ccc(Oc2ccccc2)cc1 (stereo not shown) [Compound 375, N-(2-oxo-1-{[(phenylmethyl)oxy]methyl}-2-{[4-(phenyloxy)phenyl]amino}ethyl)-2-(naphthalen-1-yl)acetamide]
